Starred links: 1 amine or outer side, 2 acyl side, 3 side chain; linkers in the order of their positions; H or OH if unused. Positions of bridges follow the written chain, without caps; N, C: chain ends. Non-standard residues stand in square brackets, D forms with d. Residues, ends and D or L forms follow the SMILES beside them. ξ: configuration not given here. mXylylene = c1cc(C[*:1])cc(C[*:2])c1; ξhCys = NC(CCS)C(=O)O

In data set [1] the test system is Human immunodeficiency virus 1. The experiment in a line: Antiviral activity against T20 resistant HIV1 NL4-3 harboring with V38E/N42S mutant infected in human MT2 cells or CEMx174 5.25 M7 cells assessed as reduction in p24 Gag protein production at 3500:1 compound to HP23 ratio measured at 4 days post-infection by ELISA. The data set is classed as functional, organism-based. (ELISA stands for enzyme-linked immunosorbent assay.)

Data set [2] has as its system Human immunodeficiency virus 1. Kind of data set: Ratio of EC50 for antiviral activity against X4 tropic HIV-1 subtype-B 3B infected in human MT2 cells or CEMx174 5.25 M7 cells in absence of HP23 to EC50 for antiviral activity against X4 tropic HIV-1 subtype-B 3B infected in human MT2 cells or CEMx174 5.25 M7 cells at 24:1 compound to HP23 ratio. The data set is classed as functional, HIV-1 group M.

Data set [3] deals with Human immunodeficiency virus 1. Kind of data set: Synergistic antiviral activity against T20 resistant HIV1 NL4-3 harboring with V38E/N42T mutant infected in human MT2 cells or CEMx174 5.25 M7 cells assessed as reduction in p24 Gag protein production by measuring combination index at 150:1 compound to HP23 ratio measured at 4 days post-infection by ELISA. The data set is classed as functional.

Data set [4] concerns Human immunodeficiency virus 1. Kind of data set: Antiviral activity against T2635 resistant HIV1 LAI harboring Q66R mutant infected in human MT2 cells or CEMx174 5.25 M7 cells assessed as reduction in p24 Gag protein production at 50:1 ratio of compound to HP23 measured at 4 days post infection by ELISA. The data set is classed as functional, organism-based, M:B_Lai.
For data set [5], the system named is Human immunodeficiency virus 1. Kind of data set: Ratio of EC50 for antiviral activity against HIV1 NL4-3 infected in human MT2 cells or CEMx174 5.25 M7 cells in absence of HP23 to EC50 for antiviral activity against HIV1 NL4-3 infected in human MT2 cells or CEMx174 5.25 M7 cells at 10:1 compound to HP23 ratio. The data set is classed as functional.
Data set [6] concerns Human immunodeficiency virus 1. The experiment in a line: Ratio of EC50 for antiviral activity against T2635 resistant HIV1 LAI harboring Q66R mutant infected in human MT2 cells or CEMx174 5.25 M7 cells in absence of HP23 to antiviral activity against T2635 resistant HIV1 LAI harboring Q66R mutant infected in human MT2 cells or CEMx174 5.25 M7 cells at 12.5:1 ratio of compound to HP23. Format: functional, M:B_Lai.

The test system of data set [7] is Human immunodeficiency virus 1. The experiment in a line: Antiviral activity against R5 tropic HIV-1 subtype-B Bal infected in human MT2 cells or CEMx174 5.25 M7 cells assessed as reduction in p24 Gag protein production at 3:1 ratio of compound to HP23 measured at 4 days post-infection by ELISA. To be noted: Human immunodeficiency virus 1, Bal, 96 h. Format: functional, cell-based, HIV-1 group M.

For data set [8], the system named is Human immunodeficiency virus 1. Kind of data set: Antiviral activity against X4 tropic HIV-1 subtype-B 3B infected in human MT2 cells or CEMx174 5.25 M7 cells assessed as reduction in p24 Gag protein production at 12:1 compound to HP23 ratio measured at 4 days post-infection by ELISA. The data set is classed as functional, cell-based, HIV-1 group M. To be noted: Human immunodeficiency virus 1, 3B, 96 h.

In data set [9] the test system is Human immunodeficiency virus 1. The experiment in a line: Synergistic antiviral activity against HIV1 NL4-3 infected in human MT2 cells or CEMx174 5.25 M7 cells assessed as reduction in p24 Gag protein production by measuring combination index at 10:1 compound to HP23 ratio measured at 4 days post-infection by ELISA. The data set is classed as functional.
The test system of data set [10] is Human immunodeficiency virus 1. Kind of data set: Antiviral activity against T20 resistant HIV1 NL4-3 harboring with V38E/N42S mutant infected in human MT2 cells or CEMx174 5.25 M7 cells assessed as reduction in p24 Gag protein production at 7000:1 compound to HP23 ratio measured at 4 days post-infection by ELISA. Format: functional, organism-based.
The subject of data set [11] is Human immunodeficiency virus 1. The experiment in a line: Antiviral activity against T2635 resistant HIV1 LAI harboring Q66R mutant infected in human MT2 cells or CEMx174 5.25 M7 cells assessed as reduction in p24 Gag protein production at 12.5:1 ratio of compound to HP23 measured at 4 days post infection by ELISA. Format: functional, organism-based, M:B_Lai.
Data set [12] in a line: Metabolic stability in rat kidney homogenates assessed as parent compound remaining at 3 to 100 uM after 4 hrs by RP-HPLC analysis. Format: ADME, tissue-based. The note with it: read-out: Stability.
The target of data set [13] is Envelope glycoprotein gp160 (Human immunodeficiency virus 1) (UniProt Q6QLK5). The experiment in a line: Binding affinity to HIV1 GP41 using GP41 NHR derived N36 peptide assessed as molecular weight at 150 uM incubated for 30 mins by sedimentation Velocity analysis.
Data set [14] relates to Human immunodeficiency virus 1. The experiment in a line: Ratio of EC50 for antiviral activity against T2635 resistant HIV1 LAI harboring Q66R mutant infected in human MT2 cells or CEMx174 5.25 M7 cells in absence of hCS6ERE to antiviral activity against T2635 resistant HIV1 LAI harboring Q66R mutant infected in human MT2 cells or CEMx174 5.25 M7 cells at 12.5:1 ratio of hCS6ERE to compound. Format: functional, M:B_Lai.

Data set [15] concerns Human immunodeficiency virus 1. Kind of data set: Ratio of EC50 for antiviral activity against T20 resistant HIV1 NL4-3 harboring with V38E/N42T mutant infected in human MT2 cells or CEMx174 5.25 M7 cells in absence of hCS6ERE to EC50 for Antiviral activity against T20 resistant HIV1 NL4-3 harboring with V38E/N42T mutant infected in human MT2 cells or CEMx174 5.25 M7 cells at 600:1 hCS6ERE to compound ratio. Format: functional.

The subject of data set [16] is Human immunodeficiency virus 1. Kind of data set: Antiviral activity against R5 tropic HIV-1 subtype-B Bal infected in human MT2 cells or CEMx174 5.25 M7 cells assessed as reduction in p24 Gag protein production at 6:1 ratio of hCS6ERE to compound measured at 4 days post-infection by ELISA. Format: functional, cell-based, HIV-1 group M. The note with it: Human immunodeficiency virus 1, Bal, 96 h.

In data set [17] the test system is Human immunodeficiency virus 1. The experiment in a line: Ratio of EC50 for antiviral activity against T2635 resistant HIV1 LAI harboring Q66R mutant infected in human MT2 cells or CEMx174 5.25 M7 cells in absence of hCS6ERE to antiviral activity against T2635 resistant HIV1 LAI harboring Q66R mutant infected in human MT2 cells or CEMx174 5.25 M7 cells at 50:1 ratio of hCS6ERE to compound. The data set is classed as functional, M:B_Lai.

For data set [18], the system named is Human immunodeficiency virus 1. The experiment in a line: Ratio of EC50 for antiviral activity against HIV1 NL4-3 infected in human MT2 cells or CEMx174 5.25 M7 cells in absence of hCS6ERE to EC50 for antiviral activity against HIV1 NL4-3 infected in human MT2 cells or CEMx174 5.25 M7 cells at 10:1 hCS6ERE to compound ratio. The data set is classed as functional.

Data set [19] deals with Human immunodeficiency virus 1. The experiment in a line: Ratio of EC50 for antiviral activity against HIV1 NL4-3 infected in human MT2 cells or CEMx174 5.25 M7 cells in absence of hCS6ERE to EC50 for antiviral activity against HIV1 NL4-3 infected in human MT2 cells or CEMx174 5.25 M7 cells at 20:1 hCS6ERE to compound ratio. Format: functional.
For data set [20], the system named is Human immunodeficiency virus 1. Kind of data set: Ratio of EC50 for antiviral activity against R5 tropic HIV-1 subtype-B Bal infected in human MT2 cells or CEMx174 5.25 M7 cells in absence of hCS6ERE to EC50 for antiviral activity against R5 tropic HIV-1 subtype-B Bal infected in human MT2 cells or CEMx174 5.25 M7 cells at 6:1 ratio of hCS6ERE to compound. Format: functional, HIV-1 group M.

Sequence of Envelope glycoprotein gp160 (Human immunodeficiency virus 1) (Q6QLK5 1-814): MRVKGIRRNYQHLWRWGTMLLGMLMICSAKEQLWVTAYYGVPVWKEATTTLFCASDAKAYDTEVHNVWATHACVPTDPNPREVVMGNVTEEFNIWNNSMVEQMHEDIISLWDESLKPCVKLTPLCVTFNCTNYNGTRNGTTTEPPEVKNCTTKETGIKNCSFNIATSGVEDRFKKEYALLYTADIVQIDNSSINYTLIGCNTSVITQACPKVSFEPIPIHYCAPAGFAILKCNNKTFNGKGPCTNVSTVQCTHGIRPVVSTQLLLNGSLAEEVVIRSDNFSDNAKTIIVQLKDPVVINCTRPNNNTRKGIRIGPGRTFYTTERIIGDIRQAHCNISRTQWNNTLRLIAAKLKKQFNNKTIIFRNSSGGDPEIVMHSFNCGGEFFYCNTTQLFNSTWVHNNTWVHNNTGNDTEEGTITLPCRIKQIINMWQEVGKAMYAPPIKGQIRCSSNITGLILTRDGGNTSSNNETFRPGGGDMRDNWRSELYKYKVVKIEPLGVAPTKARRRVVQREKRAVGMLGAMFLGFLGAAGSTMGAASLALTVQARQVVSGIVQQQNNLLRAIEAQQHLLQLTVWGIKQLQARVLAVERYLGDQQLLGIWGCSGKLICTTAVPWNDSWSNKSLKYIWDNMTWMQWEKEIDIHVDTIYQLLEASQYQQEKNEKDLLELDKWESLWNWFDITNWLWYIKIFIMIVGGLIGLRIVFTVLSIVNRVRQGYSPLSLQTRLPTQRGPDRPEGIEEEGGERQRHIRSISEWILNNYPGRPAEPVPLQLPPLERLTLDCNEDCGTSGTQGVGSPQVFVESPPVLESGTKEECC

Broadly, the EC50 is the concentration that produces a half-maximal response. Consider `CC[C@H](C)[C@H](NC(C)=O)C(=O)N[C@@H](CCC(=O)O)C(=O)N[C@@H](CCC(=O)O)C(=O)N[C@@H](CC(C)C)C(=O)N[C@H](C(=O)NC1CCSCc2cccc(c2)CSCCC(C(=O)N[C@@H](CCC(N)=O)C(=O)N[C@@H](CCC(N)=O)C(=O)N[C@@H](CCCNC(=N)N)C(=O)N[C@@H](CCCCN)C(=O)N[C@@H](CC(N)=O)C(=O)N[C@@H](CCC(=O)O)C(=O)N[C@@H](CCC(=O)O)C(=O)N[C@@H](C)C(=O)N[C@@H](CC(C)C)C(=O)N[C@@H](CCCNC(=N)N)C(=O)N[C@@H](CCC(=O)O)C(=O)N[C@@H](CC(C)C)C(N)=O)NC(=O)[C@H](CCC(N)=O)NC(=O)[C@H](C)NC(=O)[C@H](C)NC1=O)[C@@H](C)CC` (stereo not given in full) (Ac-IEELI[ξhCys]AAQ[ξhCys]QQRKNEEALREL-NH2; linker 6-10 via mXylylene), for which the EC50 came to 2040 nM in data set [1]; 26.3 nM in [4]; 4.1 nM in data set [7]; 11.1 nM in [8]; 2520 nM in [10]; 22.9 nM in data set [11]. In addition, the “Ratio EC50” value is 1.6 in [2], 2.5 in [5] and 3.8 in [6]. Further, the values for the CI in data set [3] and in data set [9] were 0.9 and 0.7, respectively. Besides, in data set [12], the remaining at 4 h was determined as 15.8%. Moreover, the Activity in data set [13] came to 19.2 kDa.

In the case of H-EMTWEEWEKKIEEYTKKIEEILK-OH, the “Ratio EC50” value is on record as 2.7 in data set [14]; 5.1 in [15]; 9.6 in data set [17]; 3.8 in data set [18]; 4.9 in data set [19]; 1.9 in data set [20]. Also, the EC50 in data set [16] stood at 1 nM.

These data come from ChEMBL document CHEMBL4334495, “Design and Biological Evaluation of m-Xylene Thioether-Stapled Short Helical Peptides Targeting the HIV-1 gp41 Hexameric Coiled-Coil Fusion Complex” (J Med Chem, 2019).
